# In the supplement of paper PMC10307832:
# Compound: CC(C)C[C@H](NC(=O)[C@H](CCc1ccccc1)NC(=O)CN1CCOCC1)C(=O)N[C@@H](Cc1ccccc1)C(=O)N[C@@H](CC(C)C)C(=O)[C@@]1(C)CO1 [Carfilzomib] + CC(=O)c1c(C)c2cnc(Nc3ccc(N4CCNCC4)cn3)nc2n(C2CCCC2)c1=O [Palbociclib] (partner 0.5 µM)
# Assay: relative viability (nuclei count vs DMSO), 5 days (fraction); higher = more cells survive
# Settings: first compound 0.1 µM
# How it was run: (§1)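 Relative viability divides the nuclei count in treated wells by that in vehicle wells. Lung cancer cell lines were seeded in 1536-well plates, dosed by pin tool the next day, and fixed and stained after 5 days in one step with final 0.05% Triton X-100, 1% formaldehyde and 1 ug/ml Hoechst. Dosing was a single drug or a fixed anchor-drug dose plus five library-drug doses (not always all listed) in √10 steps, and values are medians of duplicate plates imaged at 4×.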
row,Cell Line,relative viability
1,NCI-H2126,0.278
2,NCI-H2170,0.127
3,NCI-H2347,0.332
4,NCI-H2405,0.136

# Compound: CC(C)C[C@H](NC(=O)[C@H](CCc1ccccc1)NC(=O)CN1CCOCC1)C(=O)N[C@@H](Cc1ccccc1)C(=O)N[C@@H](CC(C)C)C(=O)[C@@]1(C)CO1 [Carfilzomib] + CC1(C)CCC(c2ccc(Cl)cc2)=C(CN2CCN(c3ccc(C(=O)NS(=O)(=O)c4ccc(N[C@H](CCN5CCOCC5)CSc5ccccc5)c(S(=O)(=O)C(F)(F)F)c4)cc3)CC2)C1 [Navitoclax] (partner 0.5 µM)
# Assay: as above
# Settings: first compound 0.001 µM
# How it was run: as §1
row,Cell Line,relative viability
1,LOU-NH91,0.703
2,LU99A,0.738
3,LXF-289,0.915
4,NCI-H23,0.797
5,NCI-H322M,1.36
6,NCI-H441,0.534
7,NCI-H460,1.08
8,NCI-H520,1.04
9,NCI-H727,0.429
10,NCI-H838,1.24
11,NCI-H1355,0.792
12,NCI-H1395,0.964
13,NCI-H1437,1.08
14,NCI-H1651,1.11
15,NCI-H1666,1.07
16,NCI-H1734,0.831
17,NCI-H1755,0.972
18,NCI-H1792,0.575
19,NCI-H1915,0.717
20,NCI-H1944,0.998
21,NCI-H1975,1.05
22,NCI-H1993,0.856
23,NCI-H2009,1.24
24,NCI-H2023,1
25,NCI-H2085,1.08
26,NCI-H2087,1.07
27,NCI-H2126,0.826
28,NCI-H2170,0.698
29,NCI-H2347,0.698

# Same assay, conditions: first compound 0.003162 µM
row,Cell Line,relative viability
1,LOU-NH91,0.832
2,LU99A,0.898
3,LXF-289,0.974
4,NCI-H23,0.799
5,NCI-H322M,1.29
6,NCI-H441,0.571
7,NCI-H460,1.21
8,NCI-H520,1.37
9,NCI-H647,1.33
10,NCI-H727,0.637
11,NCI-H838,1.26
12,NCI-H1355,1.02
13,NCI-H1395,1.24
14,NCI-H1437,1.12
15,NCI-H1650,1.09
16,NCI-H1651,1.06

row,Cell Line,relative viability
1,NCI-H1666,0.963
2,NCI-H1734,1.05
3,NCI-H1755,0.989
4,NCI-H1792,0.628
5,NCI-H1915,0.785
6,NCI-H1944,1.16
7,NCI-H1975,1.23
8,NCI-H1993,0.773
9,NCI-H2009,1.2
10,NCI-H2023,0.967
11,NCI-H2085,1.23
12,NCI-H2087,0.97
13,NCI-H2126,0.884
14,NCI-H2170,0.688
15,NCI-H2347,0.931
16,NCI-H2405,1.26

# Same assay, conditions: first compound 0.01 µM
row,Cell Line,relative viability
1,LOU-NH91,0.42
2,LU99A,0.793
3,LXF-289,0.935
4,NCI-H23,0.987
5,NCI-H322M,1.01
6,NCI-H441,0.208
7,NCI-H460,1.17
8,NCI-H520,0.797
9,NCI-H647,0.841
10,NCI-H727,0.601
11,NCI-H838,1.16
12,NCI-H1355,0.979
13,NCI-H1395,0.995
14,NCI-H1437,1.12
15,NCI-H1650,1.24
16,NCI-H1651,0.728

row,Cell Line,relative viability
1,NCI-H1666,1.05
2,NCI-H1734,0.803
3,NCI-H1755,0.994
4,NCI-H1792,0.563
5,NCI-H1915,0.762
6,NCI-H1944,1.01
7,NCI-H1975,0.416
8,NCI-H1993,1.08
9,NCI-H2009,1.15
10,NCI-H2023,1.02
11,NCI-H2085,1.02
12,NCI-H2087,0.721
13,NCI-H2126,0.871
14,NCI-H2170,0.617
15,NCI-H2347,0.733
16,NCI-H2405,1.04

# Same assay, conditions: first compound 0.03162 µM
row,Cell Line,relative viability
1,LOU-NH91,0.19
2,LU99A,0.581
3,LXF-289,0.0853
4,NCI-H23,0.227
5,NCI-H322M,1.22
6,NCI-H441,0.144
7,NCI-H460,0.357
8,NCI-H520,0.183
9,NCI-H647,0.087
10,NCI-H727,0.165
11,NCI-H838,0.686
12,NCI-H1355,0.486
13,NCI-H1395,0.481
14,NCI-H1437,0.759
15,NCI-H1650,0.1
16,NCI-H1651,0.123

row,Cell Line,relative viability
1,NCI-H1666,0.929
2,NCI-H1734,0.584
3,NCI-H1755,0.841
4,NCI-H1792,0.612
5,NCI-H1915,0.438
6,NCI-H1944,1.05
7,NCI-H1975,0.213
8,NCI-H1993,0.861
9,NCI-H2009,0.993
10,NCI-H2023,0.907
11,NCI-H2085,0.436
12,NCI-H2087,0.115
13,NCI-H2126,0.865
14,NCI-H2170,0.409
15,NCI-H2347,0.512
16,NCI-H2405,0.108

# Same assay, conditions: first compound 0.1 µM
row,Cell Line,relative viability
1,LOU-NH91,0.204
2,LU99A,0.183
3,LXF-289,0.0461
4,NCI-H23,0.152
5,NCI-H322M,0.559
6,NCI-H441,0.145
7,NCI-H460,0.0107
8,NCI-H520,0.168
9,NCI-H647,0.0294
10,NCI-H727,0.137
11,NCI-H838,0.153
12,NCI-H1355,0.133
13,NCI-H1395,0.347
14,NCI-H1437,0.12
15,NCI-H1650,0.119
16,NCI-H1651,0.0777
17,NCI-H1666,0.263
18,NCI-H1734,0.0981
19,NCI-H1755,0.198
20,NCI-H1792,0.555
21,NCI-H1915,0.0486
22,NCI-H1944,0.546
23,NCI-H1975,0.144
24,NCI-H1993,0.527
25,NCI-H2009,0.0572
26,NCI-H2023,0.0939
27,NCI-H2085,0.242
